In PMC9017309, “Triazolopyrimidines Target Aerobic Respiration in Mycobacterium tuberculosis” (Antimicrobial Agents and Chemotherapy, 2022):
≈ marks a conversion by molar mass, not a printed value. Like-named read-outs stand apart in the source and are kept apart here.

Columns and labels:
[1] = system: M. tuberculosis H37Rv-LP MmpL3 F255L; assay type: cell-based, Mycobacterium tuberculosis
[2] = system: M. tuberculosis H37Rv-LP DprE1 C387S; assay type: cell-based, Mycobacterium tuberculosis
[3] = system: M. tuberculosis H37Rv-LP QcrB A396T; assay type: cell-based, Mycobacterium tuberculosis
[4] = system: M. tuberculosis H37Rv ATCC 27294 cydKO; experiment: microbe, parasite or virus in culture; assay type: cell-based; conditions: Mycobacterium tuberculosis, 120 h, read-out: MIC, H37Rv ATCC 27294 cydKO
[5] = system: M. tuberculosis resistant isolates LP-0497553-RM; experiment: microbe, parasite or virus in culture; assay type: cell-based, Mycobacterium tuberculosis; conditions: for MIC: Mycobacterium tuberculosis, 504 h, 24-well agar plates, 3 weeks
[6] = system: M. tuberculosis H37Rv ATCC 26518 QcrBT313I; assay type: cell-based, Mycobacterium tuberculosis
[7] = system: M. tuberculosis H37Rv ATCC 26518 QcrBM342T; assay type: cell-based, Mycobacterium tuberculosis
[8] = system: M. tuberculosis resistant isolates LP-0499227-RM; assay type: cell-based, Mycobacterium tuberculosis

Structure (SMILES) | MIC, MmpL3 F255L [1] [µM] | MIC, DprE1 C387S [2] [µM] | MIC, QcrB A396T [3] [µM] | MIC [4] [µM] | MIC on solid medium, LP-0497553-RM1 [5] [µM] | MIC on solid medium, LP-0497553-RM2 [5] [µM] | MIC on solid medium, LP-0497553-RM4 [5] [µM] | MIC on solid medium, LP-0497553-RM5 [5] [µM] | MIC on solid medium, LP-0497553-RM10 [5] [µM] | MIC on solid medium, LP-0497553-RM11 [5] [µM] | MIC on solid medium, LP-0497553-RM15 [5] [µM] | MIC ([5]; read-out: MIC on solid medium, LP-0497553-RM14) [µM] | MIC ([5]; read-out: MIC on solid medium, LP-0497553-RM23) [µM] | MIC, H37Rv ATCC 26518 QcrBT313I [6] [µM] | MIC, H37Rv ATCC 26518 QcrBM342T [7] [µM] | MIC on solid medium, LP-0499227-RM1 [8] [µM] | MIC on solid medium, LP-0499227-RM2 [8] [µM] | MIC on solid medium, LP-0499227-RM3 [8] [µM] | MIC on solid medium, LP-0499227-RM4 [8] [µM] | MIC on solid medium, LP-0499227-RM7 [8] [µM]
COc1ccc(CCNc2cc(-c3ccccc3)nc3ncnn23)cc1 [TPN-0006218] | 2 ± 0.99 (≈ 0.691 µg/mL) | 0.94 ± 0.67 (≈ 0.325 µg/mL) | 6.8 ± 2.8 (≈ 2.35 µg/mL) | – | – | – | – | – | – | – | – | – | – | – | – | – | – | – | – | –
COc1ccc(CCNc2cc(-c3ccccn3)nc3ncnn23)cc1 [TPN-0006239] | 0.86 ± 0.21 (≈ 0.298 µg/mL) | 0.42 ± 0.07 (≈ 0.145 µg/mL) | 3.4 ± 0.28 (≈ 1.18 µg/mL) | 0.13 ± 0.007 (≈ 0.045 µg/mL) | 25 (≈ 8.66 µg/mL) | 25 (≈ 8.66 µg/mL) | 50 (≈ 17.3 µg/mL) | 50 (≈ 17.3 µg/mL) | 50 (≈ 17.3 µg/mL) | 50 (≈ 17.3 µg/mL) | 50 (≈ 17.3 µg/mL) | 50 (≈ 17.3 µg/mL) | 50 (≈ 17.3 µg/mL) | >20 | 11 (≈ 3.81 µg/mL) | – | – | – | – | –
FC(F)(F)c1ccc(CCNc2cc(-c3ccccc3)nc3ncnn23)cc1 [TPN-0006243] | 2.7 ± 2.4 (≈ 1.04 µg/mL) | 0.95 ± 0.29 (≈ 0.364 µg/mL) | 5.7 ± 2.1 (≈ 2.19 µg/mL) | < 0.39 | – | – | – | – | – | – | – | – | – | >20 | >20 | – | – | – | – | –
Cc1ccc(CCNc2cc(-c3ccccc3)nc3ncnn23)cc1 [TPN-0006245] | 2 ± 0.07 (≈ 0.659 µg/mL) | 0.92 ± 0.3 (≈ 0.303 µg/mL) | 5.6 ± 2.5 (≈ 1.84 µg/mL) | – | – | – | – | – | – | – | – | – | – | >20 | >20 | – | – | – | – | –
FC(F)(F)c1ccc(CCNc2cc(-c3ccccn3)nc3ncnn23)cc1 [TPN-0006267] | 1.8 ± 0.57 (≈ 0.692 µg/mL) | 0.66 ± 0.01 (≈ 0.254 µg/mL) | 5.9 ± 3.5 (≈ 2.27 µg/mL) | – | – | – | – | – | – | – | – | – | – | >20 | 10 (≈ 3.84 µg/mL) | >100 | >100 | >100 | 25 (≈ 9.61 µg/mL) | >100
